The structures appear in SMILES notation. Counter-ions that a name gives are not always drawn.

What is called melting point is the temperature of the solid-liquid transition. What is called Ki is the dissociation constant of the complex between target and ligand, obtained from inhibition or displacement.

T1 sequence (Q9Y5N1 whole entry): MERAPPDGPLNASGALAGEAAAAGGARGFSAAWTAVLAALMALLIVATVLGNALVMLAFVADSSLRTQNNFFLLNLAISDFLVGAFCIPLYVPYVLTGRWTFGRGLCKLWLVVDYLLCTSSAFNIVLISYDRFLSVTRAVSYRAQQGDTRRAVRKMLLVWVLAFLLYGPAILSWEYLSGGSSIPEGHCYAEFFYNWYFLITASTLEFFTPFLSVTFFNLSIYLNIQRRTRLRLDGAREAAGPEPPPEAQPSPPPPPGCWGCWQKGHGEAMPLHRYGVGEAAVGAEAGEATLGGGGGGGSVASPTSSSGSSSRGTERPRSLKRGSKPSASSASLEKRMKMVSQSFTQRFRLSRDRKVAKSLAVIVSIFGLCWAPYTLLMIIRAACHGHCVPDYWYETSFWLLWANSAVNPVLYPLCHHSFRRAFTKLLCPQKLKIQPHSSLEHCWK

Tested on in the first data set: not given
Test: not given
Settings: not given
In turn, `O=C(O)c1ccc(Oc2ccc3c(c2)CCN(CCN2CCCC2)C3=O)cc1` registered a melting point of 99 to 100 °C.
For the compound `CCCNC(=O)c1ccc(-c2ccc3c(c2)CCN(CCN2CCCC2)C3=O)cc1` (as salt: hydrochloride), the melting point lay in the range of 240 to 241 °C.
As for `C[C@@H]1CCCN1CCN1Cc2ccc(-c3ccc(F)cc3)cc2C1` (as salt: hydrochloride), the melting point fell in the range of 250 to 251 °C.
`COC(=O)c1ccc(-c2ccc3c(c2)CCN(CCN2CCCC2)C3=O)cc1` (as salt: hydrochloride) had a melting point of 118 to 120 °C.
Same read-out and setting: as for `COc1ccc2c(c1)CCN(CCN1CCCC1)C2=O` (as salt: hydrochloride), the figure is 201 to 202 °C.
Still for that read-out and setting: as for `COC(=O)c1ccc(Oc2ccc3c(c2)CCN(CCN2CCCC2)C3=O)cc1` (as salt: hydrochloride), the figure is 215 to 216 °C; as for `O=C1c2ccc(-c3cc(F)cc(F)c3)cc2CCN1CCN1CCCC1` (as salt: hydrochloride) [Example 10, 6-(3,5-difluorophenyl)-2-(2-pyrrolidin-1-ylethyl)-3,4-dihydroisoquinolin-1(2H)-one], 196 to 198 °C.
On the same count and under the same terms, as for `O=C1c2ccc(-c3ccccc3F)cc2CCN1CCN1CCCC1` (as salt: hydrochloride) [Example 12, 6-(2-fluorophenyl)-2-(2-pyrrolidin-1-ylethyl)-3,4-dihydroisoquinolin-1(2H)-one], the figure is 211 to 213 °C; as for `O=C1c2ccc(-c3cccc(OC(F)(F)F)c3)cc2CCN1CCN1CCCC1` (as salt: hydrochloride) [Example 13, 2-(2-pyrrolidin-1-ylethyl)-6-[3-(trifluoromethoxy)phenyl]-3,4-dihydroisoquinolin-1(2H)-one], 135 to 137 °C; as for `N#Cc1cccc(-c2ccc3c(c2)CCN(CCN2CCCC2)C3=O)c1` (as salt: hydrochloride) [Example 15, 3-[1-oxo-2-(2-pyrrolidin-1-ylethyl)-1,2,3,4-tetrahydroisoquinolin-6-yl]benzonitrile], 204 to 206 °C.
On to `O=C1c2ccc(-c3ccccc3)cc2CCN1CCN1CCCC1` (as salt: hydrochloride) [Example 16, 6-phenyl-2-(2-pyrrolidin-1-ylethyl)-3,4-dihydroisoquinolin-1(2H)-one], for which the melting point is 218 to 220 °C.
`O=C1c2ccc(-c3ccc(F)c(F)c3)cc2CCN1CCN1CCCC1` (as salt: hydrochloride) [Example 17, 6-(3,4-difluorophenyl)-2-(2-pyrrolidin-1-ylethyl)-3,4-dihydroisoquinolin-1(2H)-one] gave a melting point of 179 to 180 °C.
For `O=C1c2ccc(-c3cccc(F)c3)cc2CCN1CCN1CCCC1` (as salt: hydrochloride) [Example 18, 6-(3-fluorophenyl)-2-(2-pyrrolidin-1-ylethyl)-3,4-dihydroisoquinolin-1(2H)-one], the melting point is 182 to 184 °C.
On to `N#Cc1ccc(-c2ccc3c(c2)CCN(CCN2CCCC2)C3=O)cc1` (as salt: hydrochloride) [Example 19, 4-[1-oxo-2-(2-pyrrolidin-1-ylethyl)-1,2,3,4-tetrahydroisoquinolin-6-yl]benzonitrile], for which the melting point fell in the range of 249 to 251 °C.
Still for that read-out and setting: next, `O=C1c2ccc(-c3cccc(C(F)(F)F)c3)cc2CCN1CCN1CCCC1` (as salt: hydrochloride) [Example 20, 2-(2-pyrrolidin-1-ylethyl)-6-[3-(trifluoromethyl)phenyl]-3,4-dihydroisoquinolin-1(2H)-one]: 138 to 139 °C; `O=C1c2ccc(-c3ccc4c(c3)OCO4)cc2CCN1CCN1CCCC1` (as salt: hydrochloride) [Example 21, 6-(1,3-benzodioxol-5-yl)-2-(2-pyrrolidin-1-ylethyl)-3,4-dihydroisoquinolin-1(2H)-one]: 249 to 251 °C.
Still for that read-out and setting: next, `O=C1c2ccc(-c3ccc(C(F)(F)F)cc3)cc2CCN1CCN1CCCC1` (as salt: hydrochloride) [Example 22, 2-(2-pyrrolidin-1-ylethyl)-6-[4-(trifluoromethyl)phenyl]-3,4-dihydroisoquinolin-1(2H)-one]: 243 to 244 °C.
The same measure, in the same setting: next, `COc1ccc(-c2ccc3c(c2)CCN(CCN2CCCC2)C3=O)cc1` (as salt: hydrochloride) [Example 23, 6-(4-methoxyphenyl)-2-(2-pyrrolidin-1-ylethyl)-3,4-dihydroisoquinolin-1(2H)-one]: 224 to 225 °C.
Compound `C[C@@H]1CCCN1CCN1CCc2c(cccc2-c2cccc(C#N)c2)C1=O` (as salt: hydrochloride) [Example 27, 3-(2-{2-[(2R)-2-methylpyrrolidin-1-yl]ethyl}-1-oxo-1,2,3,4-tetrahydroisoquinolin-5-yl)benzonitrile] returned a melting point of 203 to 205 °C.
Still for that read-out and setting: next, `N#Cc1cccc(-c2ccc3c(c2)CCN(CCCN2CCCC2)C3=O)c1` (as salt: hydrochloride) [Example 33, 3-[1-oxo-2-(3-pyrrolidin-1-ylpropyl)-1,2,3,4-tetrahydroisoquinolin-6-yl]benzonitrile]: 175 to 176 °C.
Same read-out and setting: next, `N#Cc1ccc2c(ccn2-c2ccc3c(c2)CCN(CCN2CCCC2)C3=O)c1` (as salt: hydrochloride) [Example 35, 1-[1-oxo-2-(2-pyrrolidin-1-ylethyl)-1,2,3,4-tetrahydroisoquinolin-6-yl]-1H-indole-5-carbonitrile Hydrochloride]: 215 to 217 °C; `O=C1c2ccc(-n3cccn3)cc2CCN1CCN1CCCC1` (as salt: hydrochloride) [Example 37, 6-(1H-pyrazol-1-yl)-2-(2-(pyrrolidin-1-yl)ethyl)-3,4-dihydroisoquinolin-1(2H)-one hydrochloride]: 174 to 175 °C.
Same read-out and setting: next, `O=C(c1ccc2c(c1)CCN(CCN1CCCC1)C2=O)N1CCCC1` (as salt: hydrochloride) [Example 38, 6-(pyrrolidin-1-ylcarbonyl)-2-(2-pyrrolidin-1-ylethyl)-3,4-dihydroisoquinolin-1(2H)-one hydrochloride]: 194 to 196 °C.
For the compound `C[C@H]1CCCN1CCN1CCc2cc(-c3ccc(F)cc3)ccc2C1=O` (as salt: hydrochloride) [Example 39, 6-(4-fluorophenyl)-2-{2-[(2S)-2-methylpyrrolidin-1-yl]ethyl}-3,4-dihydroiso-quinolin-1(2H)-one hydrochloride], the melting point was in the range of 244 to 247 °C.
Compound `C[C@@H]1CCCN1CCN1CCc2cc(-c3ccc(F)cc3)ccc2C1=O` (as salt: hydrochloride) [Example 40, 6-(4-fluorophenyl)-2-{2-[(2R)-2-methylpyrrolidin-1-yl]ethyl}-3,4-dihydroisoquinolin-1(2H)-one] returned a melting point of 236 to 238 °C.
On the same count and under the same terms, as for `O=C1c2ccc(-c3ccc(F)cc3)cc2CCN1CCN1CCCCC1` (as salt: hydrochloride) [Example 43, 6-(4-fluorophenyl)-2-(2-piperidin-1-ylethyl)-3,4-dihydroiso-quinolin-1(2H)-one hydrochloride], the figure is 241 to 243 °C.

A further data set has as its target T1, Human Histamine H3 Receptor (Homo sapiens, UniProt Q9Y5N1).
T1 construct: expressed in transfected cells; host or cells: HEK293T (stably transfected; membranes prepared from the cells)
The data set can be described thus: Methyl histamine binding in human histamine H3 receptor cell line. The note with it: read-out: H3 Binding Ki. The method in brief:
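Radioligand binding on membranes (10 μg/well) from a human H3 receptor cell line, 1 nM radioligand, 1 h at 30° C. in 50 mM Tris pH 7.5. Nonspecific binding defined with 10 uM clobenpropit, followed by filtration and scintillation counting. IC50 from four-parameter fit, converted to Ki by Cheng-Prusoff.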
In the case of `C[C@@H]1CCCN1CCN1CCc2cc(Oc3ccc(C(=O)N4CCCC4)cc3)ccc2C1=O` [Example 160, 2-{2-[(2R)-2-methylpyrrolidin-1-yl]ethyl}-6-[4-(pyrrolidin-1-ylcarbonyl)phenoxy]-3,4-dihydroisoquinolin-1(2H)-one hydrochloride], the Ki is less than 10 nM.
Still for that read-out and setting: as for `C[C@@H]1CCCN1CCN1CCc2cc(N3CCCCC3)ccc2C1=O` [Example 161, 2-{2-[(2R)-2-methylpyrrolidin-1-yl]ethyl}-6-piperidin-1-yl-3,4-dihydroisoquinolin-1(2H)-one], the figure is less than 10 nM; as for `NC(=O)c1ccc(-c2ccc3c(c2)CCN(CCN2CCCC2)C3)cc1` [Example 180, 4-[2-(2-pyrrolidin-1-ylethyl)-1,2,3,4-tetrahydroisoquinolin-6-yl]benzamide], 10.1 to 25 nM.
On the same count and under the same terms, as for `CNC(=O)c1ccc(-c2ccc3c(c2)CCN(CCN2CCCC2)C3)cc1` [Example 181, N-methyl-4-[2-(2-pyrrolidin-1-ylethyl)-1,2,3,4-tetrahydroisoquinolin-6-yl]benzamide], the figure is less than 10 nM; as for `CCNC(=O)c1ccc(-c2ccc3c(c2)CCN(CCN2CCCC2)C3)cc1` [Example 182, N-ethyl-4-[2-(2-pyrrolidin-1-ylethyl)-1,2,3,4-tetrahydroisoquinolin-6-yl]benzamide], less than 10 nM.
On to `CN(C)C(=O)c1ccc(-c2ccc3c(c2)CCN(CCN2CCCC2)C3)cc1` [Example 183, N,N-dimethyl-4-[2-(2-pyrrolidin-1-ylethyl)-1,2,3,4-tetrahydroisoquinolin-6-yl]benzamide], for which the Ki is less than 10 nM.
The same measure, in the same setting: as for `O=C(c1ccc(-c2ccc3c(c2)CCN(CCN2CCCC2)C3)cc1)N1CCCC1` [Example 184, 6-[4-(pyrrolidin-1-ylcarbonyl)phenyl]-2-(2-pyrrolidin-1-ylethyl)-1,2,3,4-tetrahydroisoquinoline], the figure is less than 10 nM; as for `O=C(c1ccc(-c2ccc3c(c2)CCN(CCN2CCCC2)C3)cc1)N1CCCCC1` [Example 185, 6-[4-(piperidin-1-ylcarbonyl)phenyl]-2-(2-pyrrolidin-1-ylethyl)-1,2,3,4-tetrahydroisoquinoline], 10.1 to 25 nM.
In the case of `O=C(c1ccc(-c2ccc3c(c2)CCN(CCN2CCCC2)C3)cc1)N1CCOCC1` [Example 186, 6-[4-(morpholin-4-ylcarbonyl)phenyl]-2-(2-pyrrolidin-1-ylethyl)-1,2,3,4-tetrahydroisoquinoline], the Ki is less than 10 nM.
On to `C[C@@H]1CCCN1C(=O)c1ccc(-c2ccc3c(c2)CCN(CCN2CCCC2)C3)cc1` [Example 187], for which the Ki lay within 10.1 to 25 nM.

Values taken from patent publication US20090069300A1, “ISOQUINOLINYL AND ISOINDOLINYL DERIVATIVES AS HISTAMINE-3 ANTAGONISTS” (Wyeth, priority 2007, published 2009).
